# “And” between values parts separate entries of the source, which are not always exact repeats. Identical values can stand only once. “Also recorded” adds a separate entry of the source.
# Legend:
# [1] = Temporal properties: onset of sweetness, time to maximum sweetness, aftertaste decay, trained sensory panel; type: in vivo, human
# Description: Equi-sweet solutions at about 6 SEV were made in spring water (Ice Mountain, retail) of the following sweeteners: purified mogroside-V (Chem Faces, CFS202202), rebaudioside M (95%, Tate & Lyle, lot #1802-2302-1), rebaudioside A (95%, Tate & Lyle, 210617-01), and monk fruit (50% mogroside V, Tate & Lyle, 45GF220305). Another solution was prepared at about 6 SEV of a blend composed of 80% purified mogroside-V (Chem Faces, CFS202202), 15% 11-oxo-mogroside-V (Chem Faces, CFS202201), and 5% mogroside IIIA-1 (Chem Faces, CFS202201). The concentration of each solution can be found in Table 7.
# A set of samples of each solution was evaluated by a panel of 7-9 trained judges. Panelists measured the time to onset of sweetness and time to reach maximum sweetness using a timer. Sweetness decay after expectorating was measured by rating sweetness intensity every 5 seconds on a 15-cm line scale graduated in evenly spaced 5-point increments and labeled low (0) to high (60). Samples were served at room temperature in 4-oz soufflé cups, labeled with random 3-digit codes. Water and saltine crackers were provided for rinsing between samples. Blind duplicates were evaluated in a second panel under the same conditions.
# (§1) A solution of V90 was made at 410 ppm in spring water (Ice Mountain, retail) to be about 6 SEV. A second solution was made at about 6 SEV of purified mogroside-V (Chem Faces, CFS202202) at 325 ppm. A panel of 7-8 trained judges evaluated the temporal properties and taste attributes of each sample, including blind duplicates, in the same manner described previously in the Mogroside Blend 80/15/5 Taste Quality sections.
# Two individual mogroside components of the blend, 11-oxo mogroside-V (Chem Faces, […]) and mogroside III-A1 (Chem Faces, 202301), were evaluated separately in spring water (Ice Mountain, retail) to determine the concentration needed to reach approximately 6 SEV. Solutions were then prepared at 3600 ppm of 11-oxo-mogroside-V and 600 ppm mogroside IIIA-1.
# A panel of 6-7 trained judges evaluated the solutions by measuring the time to onset of sweetness and time to reach maximum sweetness using a timer. Decay of lingering aftertaste after expectorating was measured by rating sweetness intensity every 5 seconds on a 15-cm line scale graduated in evenly spaced 5-point increments and labeled low (0) to high (60). Samples were served at room temperature in 4-oz soufflé cups, labeled with random 3-digit codes, including blinded duplicates. Water and saltine crackers were provided for rinsing between samples.
# [2] = Descriptive analysis of sweetener attributes, sensory panel, 15-cm line scale; type: in vivo, human; settings: for taste quality in words: sensory panel; for Astringent, average intensity score / Bitter Linger, average intensity score / Bitterness, average intensity score / Body, average intensity score / Caramel, average intensity score / Fruity, average intensity score / Licorice, average intensity score / Sweet Linger, average intensity score / Sweetness, average intensity score: about 6 SEV in spring water, 0=low, 60=high
# Excerpt: The same samples described above were presented to a panel of 6-9 experienced judges for descriptive analysis. Solutions were blind-coded with random 3-digit codes and served at room temperature for evaluation. Panelists individually scored attributes of each sample, such as sweetness intensity, bitterness, astringency, and the presence of side flavors such as licorice or fruitiness. Scores were based on a 15-cm line scale marked with evenly spaced 5-point increments from low (0) to high (60). Samples were evaluated in duplicate. Water and saltine crackers were provided for rinsing between samples.
# as §1
# The panel also evaluated the intensity of several sensory attributes such as bitterness, astringency, caramel flavor, and fruitiness. The same 15-cm line scale was used for scoring, labeled from low (0) to high (60) with evenly spaced 5-point increments. The samples were served in 4-oz soufflé cups that were labeled with random 3-digit codes. Samples were evaluated at room temperature and included blind duplicates. Water and saltine crackers were provided for rinsing between samples. A 400-ppm solution of V90 (Huacheng Bio, LHGE-230401) was tasted as a reference at the beginning of the descriptive analysis session for calibration verification among panelists.
# [3] = Sweetness concentration response curve against sucrose reference standards, trained sensory panel; type: in vivo, human; settings: for Potency at 5 SEV / potency, times as sweet as sucrose at 5 SEV: spring water, room temperature; for potency, times as sweet as sucrose at 5 SEV: at 5 sucrose equivalent value (SEV)
# Description: A blend composed of 80% purified mogroside-V (Chem Faces, CFS202202), 15% 11-oxo-mogroside-V (Chem Faces, CFS202201), and 5% mogroside IIIA-1 (Chem Faces, CFS202201) was diluted to six different concentrations (from 100 ppm to 650 ppm) in spring water (Ice Mountain, retail). For each solution, a set of five reference standards of sucrose dissolved in water in 0.5% (w/w) concentration increments was also prepared. Each concentration of the mogroside blend was evaluated by 6-8 trained judges. Samples were presented in 4-oz soufflé cups at room temperature, and the test sample was labeled with a random 3-digit code. Panelists tasted the blind-coded sample compared to the set of reference samples to determine the sweetness intensity score to the nearest 0.1 unit. Each concentration was evaluated in duplicate. The sweetness intensity scores were then plotted against the mogroside blend concentration to make a concentration response curve, and the best fitting Beidler equation was generated.
# V90 is a 90% pure mogroside V containing about 6% 11-oxo mogroside-V. Five different concentrations of V90 (Huacheng Bio, LHGE-230401), ranging from 100 ppm to 500 ppm, were diluted in spring water (Ice Mountain, retail). Each dilution was presented to a panel of 7-8 judges experienced in evaluating sweeteners and was accompanied by a range of five sucrose solution reference standards bracketing the sweetness intensity of the test sample in 0.5% (w/w) increments. Panelists assigned a sweetness intensity score to each test sample, including blind duplicates, to the nearest 0.1 unit. All samples were served at room temperature in 4-oz soufflé cups with the test samples labeled with random 3-digit codes. Water and saltine crackers were provided for rinsing between samples.
# Both individual mogrosides were also evaluated at five different concentrations in spring water (Ice Mountain, retail) for sweetness intensity. 11-oxo-mogroside was diluted to concentrations ranging from 200 ppm to 600 ppm and mogroside IIIA-1 was diluted to concentrations from 100 to 500 ppm. For each concentration, a set of five sucrose solution reference standards were prepared in 0.5% (w/w) increments to approximately bracket the sweetness intensity of the test sample. A panel of 6-8 trained judges evaluated each test sample in duplicate, accompanied by the corresponding reference standards, and assigned a sweetness intensity score to the sample to the nearest 0.1 unit. Samples were presented in 4-oz soufflé cups at room temperature, and the test sample was labeled with a random 3-digit code. The sweetness intensity scores were then plotted as a function of mogroside concentration to make a concentration response curve, and the best fitting Beidler equation was generated.
# The error bars around each point represent 1 standard deviation. The data fit a Beidler equation with an r2 value of 0.961. The equation for this line is:
# SEV=16.08*C/(521.2+C) • where SEV is the % sucrose equivalent sweetness as determined by sensory panel and C is the concentration of mogroside blend in ppm or mg/L.
# P=SEV*10,000/C • where C is the concentration of the mogroside blend in ppm or mg/L and SEV is the % sucrose equivalent sweetness determined by sensory panel.
# [4] = cited from earlier work
# [5] = solutions at about 6 SEV, room temperature
# [6] = sucrose, not evaluated in this test
smiles,measurement,setting,value
"C=C1C[C@@]23CC[C@H]4[C@@](C)(CCC[C@@]4(C)C(=O)O[C@@H]4O[C@H](CO)[C@@H](O)[C@H](O[C@@H]5O[C@H](CO)[C@@H](O)[C@H](O)[C@H]5O)[C@H]4O[C@@H]4O[C@H](CO)[C@@H](O)[C@H](O)[C@H]4O)[C@@H]2CC[C@]1(O[C@@H]1O[C@H](CO)[C@@H](O)[C@H](O[C@@H]2O[C@H](CO)[C@@H](O)[C@H](O)[C@H]2O)[C@H]1O[C@@H]1O[C@H](CO)[C@@H](O)[C@H](O)[C@H]1O)C3 [Rebaudioside M, rebaudioside M]",sweetness decay time after expectorating,[1]; solutions at about 6 SEV,50 s
"C=C1C[C@@]23CC[C@H]4[C@@](C)(CCC[C@@]4(C)C(=O)O[C@@H]4O[C@H](CO)[C@@H](O)[C@H](O)[C@H]4O)[C@@H]2CC[C@]1(O[C@@H]1O[C@H](CO)[C@@H](O)[C@H](O[C@@H]2O[C@H](CO)[C@@H](O)[C@H](O)[C@H]2O)[C@H]1O[C@@H]1O[C@H](CO)[C@@H](O)[C@H](O)[C@H]1O)C3 [Rebaudioside A, rebaudioside A]",taste quality in words,[2],a bitter taste continued to linger; also recorded: notable bitterness compared to the other sweeteners
same,sweetness decay time after expectorating,[1]; solutions at about 6 SEV,about 40 seconds
"C[C@H](CC[C@@H](O[C@@H]1O[C@H](CO[C@@H]2O[C@H](CO)[C@@H](O)[C@H](O)[C@H]2O)[C@@H](O)[C@H](O)[C@H]1O[C@@H]1O[C@H](CO)[C@@H](O)[C@H](O)[C@H]1O)C(C)(C)O)[C@H]1CC[C@@]2(C)[C@@H]3CC=C4[C@@H](CC[C@H](O)C4(C)C)[C@]3(C)[C@H](O)C[C@]12C [Mogroside IIIA-1, mogroside IIIA-1]","Astringent, average intensity score",[2],5.1
same,"Bitter Linger, average intensity score",[2],37.3
same,"Bitterness, average intensity score",[2],37.3
same,"Body, average intensity score",[2],12.1
same,"Caramel, average intensity score",[2],1.9
same,"Fruity, average intensity score",[2],0.7
same,"Licorice, average intensity score",[2],2.2
same,"Sweet Linger, average intensity score",[2],5.7
same,"Sweetness, average intensity score",[2],34.5
same,taste quality in words,[2],strongly bitter with a strong lingering bitter aftertaste
same,taste quality in words,[2]; listed as mogroside IIIA-1,strong bitter aftertaste that almost immediately overwhelmed any lingering sweet sensation
same,duration of bitter taste after expectorating,"[1]; 600 ppm, about 6 SEV",more than 60 seconds
same,Potency at 5 SEV,[3],71×
same,SEV at which the concentration response curve plateaus,[3]; in vivo,4-5 SEV
same,concentration at which sweetness plateaus,[3]; in vivo,about 500 ppm
"C[C@H](CC[C@@H](O[C@@H]1O[C@H](CO[C@@H]2O[C@H](CO)[C@@H](O)[C@H](O)[C@H]2O)[C@@H](O)[C@H](O)[C@H]1O[C@@H]1O[C@H](CO)[C@@H](O)[C@H](O)[C@H]1O)C(C)(C)O)[C@H]1CC[C@@]2(C)[C@@H]3CC=C4[C@@H](CC[C@H](O[C@@H]5O[C@H](CO[C@@H]6O[C@H](CO)[C@@H](O)[C@H](O)[C@H]6O)[C@@H](O)[C@H](O)[C@H]5O)C4(C)C)[C@]3(C)[C@H](O)C[C@]12C [Mogroside V, mogroside V]","Astringent, average intensity score",[2],2.9 and 2.5
same,"Bitter Linger, average intensity score",[2],0.0
same,"Bitterness, average intensity score",[2],1.1 and 1.4
same,"Body, average intensity score",[2],11.9 and 12.1
same,"Caramel, average intensity score",[2],4.2 and 4.5
same,"Fruity, average intensity score",[2],2.6 and 3.0
same,"Licorice, average intensity score",[2],0.8 and 0.7
same,"Sweet Linger, average intensity score",[2],16.2 and 14.3
same,"Sweetness, average intensity score",[2],35.9 and 36.3
same,onset of sweetness,[1]; [5],1.1 s
same,time to reach maximum sweetness,[1]; [5],2.5 s
same,"SEV at 1,000 ppm",[3]; from Beidler curve,11.5 SEV
same,"Beidler equation denominator constant (SEV=a*C/(b+C), b)",[3]; C = concentration,920.8 ppm or mg/L
same,"Beidler equation numerator constant (SEV=a*C/(b+C), a)",[3]; SEV = % sucrose equivalent sweetness,22.03
same,Potency at 5 SEV,[3],185×
same,"potency, times as sweet as sucrose at 5 SEV",[3]; listed as mogroside V,185 times as sweet as sucrose
same,"potency, times as sweet as sucrose at 5 SEV",[3]; listed as mogroside-V,about 185 times as sweet as sucrose
same,"potency, times as sweet as sucrose at 5 SEV",[3]; listed as purified Mog-V,~200 times as sweet as sucrose
same,Potency at 10 SEV,"[3]; at 10 SEV, from Beidler curve",131×
C[C@H](CC[C@@H](O[C@@H]1O[C@H](CO[C@@H]2O[C@H](CO)[C@@H](O)[C@H](O)[C@H]2O)[C@@H](O)[C@H](O)[C@H]1O[C@@H]1O[C@H](CO)[C@@H](O)[C@H](O)[C@H]1O)C(C)(C)O)[C@H]1CC[C@@]2(C)[C@@H]3CC=C4[C@@H](CC[C@H](O[C@@H]5O[C@H](CO[C@@H]6O[C@H](CO)[C@@H](O)[C@H](O)[C@H]6O)[C@@H](O)[C@H](O)[C@H]5O)C4(C)C)[C@]3(C)C(=O)C[C@]12C [11-oxo-mogroside V],"Astringent, average intensity score",[2],4.3
same,"Bitter Linger, average intensity score",[2],0.7
same,"Bitterness, average intensity score",[2],7.7
same,"Body, average intensity score",[2],12.7
same,"Caramel, average intensity score",[2],4.8
same,"Fruity, average intensity score",[2],2.1
same,"Licorice, average intensity score",[2],2.1
same,"Sweet Linger, average intensity score",[2],17.1
same,"Sweetness, average intensity score",[2],37.1
same,taste quality in words,[2],slight bitterness
same,sweetness decay time after expectorating,[1]; solutions at about 6 SEV,about 45 seconds
same,"SEV at 1,000 ppm",[3]; from Beidler curve,4.2 SEV
same,Potency at 5 SEV,[3],28×
same,"potency, times as sweet as sucrose at 5 SEV",[3]; listed as 11-oxo mogroside-V,approximately 28 times as sweet as sucrose
same,"potency, times as sweet as sucrose at 5 SEV",[3]; listed as 11-oxo-mogroside-V,28 times as sweet as sucrose
OC[C@H]1O[C@@](CO)(O[C@H]2O[C@H](CO)[C@@H](O)[C@H](O)[C@H]2O)[C@@H](O)[C@@H]1O [sucrose],sweetness decay time (typical value),[4]; 6 SEV solution of sucrose,20 to 25 s
same,"onset of sweetness (general value, not evaluated in this test)",[4]; [6],about 0.5 seconds
same,"time to reach maximum sweetness (general value, not evaluated in this test)",[4]; [6],around 1 second
